These results are taken from PubChem BioAssay (NCI).

“And” between values parts separate entries of the source, which are not always exact repeats. Identical values can stand only once.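 Each compound was tested at five concentrations against cells in 96-well plates for 48 hours. Abbreviation: GI50, concentration required for 50% inhibition of growth. The concentration for full growth arrest is given as TGI.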

Test systems include HCT-116 colon; SR leukemia; T-47D breast; HL-60(TB) leukemia; MCF7 breast; PC-3 prostate; OVCAR-5 ovarian.
Assay in all cases: NCI tumour cell line growth inhibition, 48 h

For the compound `CO[C@@H]1/C=C\C=C(/C)C(=O)NC2=CC(=O)C(NCCN(C)C)=C(C[C@@H](C)C[C@@H](OC)[C@@H](O)[C@H](C)/C=C(\C)[C@H]1OC(N)=O)C2=O`, the GI50 is 0.0192 µM in the assay with HCT-116 colon; 0.03 µM and 0.0574 µM in the assay on T-47D breast; < 0.0106 µM and 0.0715 µM with HL-60(TB) leukemia; < 0.01 µM and 0.0264 µM in the assay with PC-3 prostate; 0.406 µM and 0.11 µM in the assay with OVCAR-5 ovarian. Further, the TGI was 1.52 µM and 2.3 µM with HCT-116 colon; 10.6 µM in the assay with SR leukemia; 3.31 µM and 4.48 µM in the assay with T-47D breast; 1.4 µM and 0.734 µM in the assay on HL-60(TB) leukemia; 1.88 µM and 3.8 µM in the assay on MCF7 breast; 33.6 µM and 17.8 µM in the assay on PC-3 prostate. Further, the TGI with OVCAR-5 ovarian was 9.23 µM and 7.52 µM.

Turning to `O=S(=O)(NC1=NCCN1C(=S)SN1CCn2c1nsc2=S)c1ccc(Br)cc1`, the GI50 in the assay on HCT-116 colon was 24.7 µM; in the assay on SR leukemia, 24.2 µM; in the assay on T-47D breast, 43.5 µM; in the assay on HL-60(TB) leukemia, 24.3 µM; in the assay with MCF7 breast it was 31.7 µM; in the assay on PC-3 prostate, 30.8 µM. The GI50 in the assay with OVCAR-5 ovarian was more than 100 µM. Besides, the TGI with HCT-116 colon is 73.2 µM; in the assay with SR leukemia, 74.1 µM; in the assay on T-47D breast, more than 100 µM; with HL-60(TB) leukemia it was 60.1 µM; in the assay on MCF7 breast, more than 100 µM; in the assay on PC-3 prostate it was more than 100 µM. Moreover, the TGI in the assay on OVCAR-5 ovarian is more than 100 µM.

As for `Cc1ccccc1NC(=O)N/C(N)=N/c1nc(-c2cccc([N+](=O)[O-])c2)cs1`, the GI50 in the assay on HCT-116 colon is 1.58 µM; with SR leukemia, 0.594 µM; with T-47D breast, 3.2 µM; in the assay on HL-60(TB) leukemia it was 3.56 µM; with MCF7 breast it was 1.47 µM; in the assay on PC-3 prostate, 2.66 µM. Also, the GI50 with OVCAR-5 ovarian was 4.34 µM. The TGI is 3.18 µM in the assay on HCT-116 colon; more than 100 µM with SR leukemia; more than 100 µM in the assay with T-47D breast; more than 100 µM in the assay with HL-60(TB) leukemia; more than 100 µM with MCF7 breast; more than 100 µM with PC-3 prostate. The same compound showed a TGI with OVCAR-5 ovarian of more than 100 µM.

On to `Nc1c(C(=O)c2ccc(Cl)cc2)sc(Nc2ccccc2)c1-c1nc2ccccc2s1`, for which the GI50 is 5.04 µM with HCT-116 colon; 0.857 µM in the assay with SR leukemia; 1.46 µM with T-47D breast; more than 57.3 µM in the assay on HL-60(TB) leukemia; 1.65 µM in the assay on MCF7 breast; 2.35 µM in the assay on PC-3 prostate. In the assay on OVCAR-5 ovarian, the GI50 is more than 100 µM. The TGI in the assay on HCT-116 colon, in the assay with SR leukemia, with T-47D breast, in the assay with HL-60(TB) leukemia, in the assay on MCF7 breast and in the assay with PC-3 prostate was more than 100 µM each time. Further, the TGI with OVCAR-5 ovarian is more than 100 µM.

With `CC(=O)N[C@H]1C=C[C@@H]2/C=C(C)/C=C/[C@@H](C)[C@H]([C@H](C)[C@H](O)[C@@H](C)NC(C)=O)OC(=O)/C=C/C=C(C)\C=C\[C@]2(C)C1`, the GI50 with HCT-116 colon is 0.00564 µM and 0.0045 µM; in the assay on SR leukemia it was 0.0184 µM and 0.0045 µM; in the assay on T-47D breast it was 0.0131 µM and 0.0045 µM; in the assay on MCF7 breast it was 0.0336 µM and 0.0045 µM; with PC-3 prostate, 0.0202 µM and 0.0045 µM; with OVCAR-5 ovarian, 14.1 µM. The TGI in the assay on HCT-116 colon is 4.65 µM and > 45 µM; with SR leukemia it was 4.65 µM and 20.3 µM; in the assay on T-47D breast it was 4.65 µM and 5.18 µM; in the assay on HL-60(TB) leukemia, 4.65 µM and 20.6 µM; in the assay with MCF7 breast, 4.65 µM and > 45 µM; in the assay on PC-3 prostate, 4.65 µM and > 45 µM. For the same compound, the TGI in the assay with OVCAR-5 ovarian is more than 45 µM.

As to `COc1cc(Nc2nccc(Nc3ccc4c(C)[nH]nc4c3)n2)cc(OC)c1OC`, the GI50 is 2.26 µM with HCT-116 colon; 1.42 µM with SR leukemia; 1.44 µM in the assay on T-47D breast; 3.31 µM with HL-60(TB) leukemia; 1.62 µM in the assay with MCF7 breast; 2.33 µM with PC-3 prostate. Also, the GI50 with OVCAR-5 ovarian was 1.8 µM. In addition, the TGI in the assay with HCT-116 colon was 6.42 µM; in the assay with SR leukemia, more than 15.3 µM; in the assay on T-47D breast, 7.46 µM; in the assay on HL-60(TB) leukemia, 9.04 µM; with MCF7 breast, 16.9 µM; in the assay on PC-3 prostate it was more than 20.5 µM. In the assay on OVCAR-5 ovarian, this compound had a TGI of 20.8 µM.

Regarding `COC(=O)CCc1cc(OC)c2c(c1)C(C(=O)OC)C(c1ccc(OC)c(OC)c1)O2` (stereo not drawn), the TGI with HCT-116 colon, with SR leukemia, in the assay with T-47D breast, in the assay on HL-60(TB) leukemia, in the assay with MCF7 breast and in the assay with PC-3 prostate was more than 100 µM each time. The TGI in the assay with OVCAR-5 ovarian is more than 100 µM. Besides, in the assay on PC-3 prostate, the GI50 was > 100 µM and 28.8 µM.

In the case of `O=c1c(Oc2ccc(F)cc2F)cc2cnc(NC3CCOCC3)nc2n1C1CCS(=O)(=O)CC1`, the GI50 with HCT-116 colon, with SR leukemia, with T-47D breast, in the assay on HL-60(TB) leukemia, in the assay on MCF7 breast and with PC-3 prostate was more than 25 µM in each case. Moreover, in the assay with OVCAR-5 ovarian, the GI50 is more than 25 µM. The TGI in the assay with HCT-116 colon, in the assay with SR leukemia, with T-47D breast, in the assay on HL-60(TB) leukemia, in the assay on MCF7 breast and with PC-3 prostate was more than 25 µM in each case. This compound displayed a TGI in the assay on OVCAR-5 ovarian of more than 25 µM.
